Source: patent US6808714B2, “Detection of sarcocystis neurona” (priority 2000, dated 2004)

System: S. neurona merozoites
Assay: Ionophore A23187-stimulated merozoite release from infected host cell monolayers
Format: cell-based, Sarcocystis neurona
Protocol: A stock solution of calcium ionophore A23187 (Sigma) was prepared in dimethylsulfoxide to a final concentration of 1 mg/ml and stored at −20° C. Infected cell monolayers (see example 1) at 12 days post infection were washed three times with PBS or Hanks Balanced Salts Solution (HBSS), and 10 ml of A23187 (1 μM in HBSS) was added to the washed monolayer and incubated at 37° C. for 40 min. in 5% CO2, 95% air. Free merozoites were collected by centrifugation and washed in PBS as above. Parasites released by this method were examined by density gradient centrifugation, but further separation from host cell debris by density gradient centrifugation was not routinely necessary. For further purification, parasites recovered from the supernatant were isolated from host cell debris on a discontinuous buoyant density gradient using Iodixanol (Optiprep) in PBS or HBSS. Merozoites were suspended gently in 1.0 ml PBS and were layered onto a preformed, three step discontinuous gradient with layers of 1.03, 1.04 and 1.06 g/ml in a 15 ml round bottom centrifuge tube. The gradient was centrifuged at 1000×g for 25 min at 20° C. with the brake off. Fractions containing particulate material at each interface were collected and examined microscopically. The fractions(s) containing significant amounts of merozoites were collected for use.
Lung cells at 60% confluence were seeded at a density of 0.1 merozoites per host cell and parasite growth was monitored microscopically for 30 days. Free parasites were not observed until 10 days post infection. During most of the period of observation, the percentage of extracellular parasites was less than 10%. On day 28, the largest number of free parasites was counted; but the next day the numbers of extracellular parasites was back to less than 10%. Duplicate 75 cm flasks were grown for 12 days in HL cells and treated with HBSS or HBSS with 1 μM A23187. Free parasites were collected by centrifugation and counted with a hemocytometer.

CNc1ccc2oc(C[C@H]3O[C@@]4(CC[C@H]3C)O[C@H]([C@H](C)C(=O)c3ccc[nH]3)[C@H](C)C[C@H]4C)nc2c1C(=O)O [A23187]
Merozoite release in response to ionophore treatment (infected GT, HFF, CHO, BHK and primary EM cells, same conditions): refractory | Enhancement of collection of parasites free in the culture medium (infected host cells incubated 40 min in 1 μM A23187): 90 fold | Merozoite release in response to ionophore treatment (parasitized BM, BM0617, HL, BT and ED cells): released merozoites
